Data taken from patent publication US11332716B2, “Methods and compositions for producing pancreatic beta cells” (The Regents of the University of California, priority 2015, dated 2022).

System: PDX1+/NKX6.1+ pancreatic progenitor cells
Test: Direct differentiation of PDX1+/NKX6.1+ progenitors to pancreatic beta cells
Assay type: cell-based, human
Conditions: alone; does not maintain any progenitor expression
Procedure: Variations on the direct differentiation method disclosed herein (see, e.g., Examples 13 and 17) were also developed that yielded efficient and cost-effective production of functional pancreatic beta cells from pluripotent stem cells. Illustrated schematically in FIG. 24, one method according to the disclosure provides embryonic stem cells (e.g., human embryonic stem cells) that were exposed to retinoic acid and incubated for a sufficient time to see expression of PDX1. During this time, the cells were not exposed to bone morphogenetic protein (BMP), which can lead to precocious endocrine differentiation and, ultimately, the production of non-functional polyhormonal cells. PDX1^+ cells were then exposed to 50 ng/ml epidermal growth factor (EGF) and 50 ng/ml keratinocyte growth factor (KGF or K) in DMEM basal media containing IX GLUTAMAX™ (Invitrogen), IX non-essential amino acids (Invitrogen) and serum-free IX B27supplement (Life Technologies) for an extended period of 24-48 hours under the culture conditions disclosed herein. The extended incubation of pancreatic progenitor PDX1^+ cells in the absence of BMP led to the efficient production of […] pancreatic progenitor cells. The PDX1^+NKX6.1^+cells were then incubated in an optimized combination of growth factors to induce NGN3 expression while maintaining expression of PD1 and NKX6.1. […]

## C[C@H](NC(=O)Cc1cc(F)cc(F)c1)C(=O)N[C@@H]1C(=O)N(C)c2ccccc2-c2ccccc21 [gamma secretase inhibitor XX]
  endocrine differentiation: induces endocrine differentiation efficiently
